Data on four compounds can be found in US20250368640A1 (BIOFRONT LTD, priority 2022, published 2025).

A word on the IC50: it is the concentration that gives 50% inhibition. The term Dmax denotes the largest share of the target that was removed.

SMILES strings stand for the structures. Like-named read-outs stand apart in the source and are kept apart here. A value given as a limit tells only on which side of the number the result lay.

In test [1] the target is T1, HPK1 (Homo sapiens (Human), UniProt Q92918). Kind of test: HPK1 enzyme inhibition assay (ADP-Glo). It is filed as biochemical. As to the method:
HPK1 Enzyme Inhibition Assay
The compound was dissolved in 100% DMSO at the concentration of 10 mM. The HPK1 protein was purchased from Signal Chem (M23-11G-10). 2.5 μL per well of 2×HPK1 protein was added to assay plate containing the test compound, centrifuged at 1500 rpm for 1 minute, and then incubated at 25° C. for 60 minutes. MBP protein was purchased from Signal Chem (M42-51N) and ATP was purchased from Promega (V9102). The two were added 2.5 μL per well mixture of 2×MBP (0.2 ug/ul) and ATP (20 μM), centrifuged at 1500 rpm for 1 minute, then incubated at 25° C. for 60 minutes. Then added 5 μL of ADP-Glo from Promega (V9102) to the assay plate and depleted the unconsumed ATP for 60 minutes. Then centrifuged at 1500 rpm for 1 minute and incubated at 25° C. for 60 minutes. Finally, 10 μL of the kinase assay reagent from Promega (V9102) was added to the assay plate to convert ADP to ATP, centrifuged at 1500 rpm for 1 minute, incubate at 25° C. for 40 minutes. After 40 minutes incubation, the […] was determined. Based on the results, the IC50 value of the compound was calculated.
Target sequence in this assay (Q92918 1-346 limits assumed): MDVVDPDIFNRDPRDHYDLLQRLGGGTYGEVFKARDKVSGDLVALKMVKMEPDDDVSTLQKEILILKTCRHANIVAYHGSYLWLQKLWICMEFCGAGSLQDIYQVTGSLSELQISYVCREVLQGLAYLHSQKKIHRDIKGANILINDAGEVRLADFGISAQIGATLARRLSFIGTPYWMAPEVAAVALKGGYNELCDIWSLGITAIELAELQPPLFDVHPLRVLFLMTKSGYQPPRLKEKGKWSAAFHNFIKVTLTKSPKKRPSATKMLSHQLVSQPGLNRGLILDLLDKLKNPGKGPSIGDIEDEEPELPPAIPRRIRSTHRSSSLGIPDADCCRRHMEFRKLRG
In general terms: ADP-Glo turns the ADP formed in a reaction into a luminescent signal.

Test [2] has as its target FLT3-ITD (Homo sapiens, UniProt P36888). Description: FLT3-ITD enzyme inhibition assay. Format: biochemical. Particulars: enzyme inhibition. The method, then:
(§1) FLT3-ITD Enzyme Inhibition Assay
(§2) The compound was dissolved in 100% DMSO at the concentration of 10 mM. The FLT3-ITD protein was purchased from Invitrogen (PV6191). 10 μL per well of 2.5×FLT3-ITD protein was added to assay plate containing the test compound, centrifuged at 1000 rpm for 1 minute, and then incubated at 25° C. for 10 minutes. Peptide 2 was purchased from GL Biochem (112394) and ATP was purchased from Promega (V9102). The two were added 15 μL per well mixture of 1.67× peptide 2 (final conc. is 3 μM) and ATP (final conc. is 97.2 μM), centrifuged at 1000 rpm for 1 minute, then incubated at 25° C. for 40 minutes. Then added 30 μL of stop buffer (100 mM HEPES pH7.5, 0.015% Brij-35, 0.2% Coating Reagent 3, 50 mM EDTA) to the assay plate and centrifuged at 1000 rpm for 1 minute. the product was determined. Based on the results, the IC50 value of the compound was calculated.

In test [3] the target is T2, Aurora A (Homo sapiens (Human), UniProt O14965). Kind of test: Aurora A enzyme inhibition assay. Format: biochemical. The method, then:
Aurora A Enzyme Inhibition Assay
The compound was dissolved in 100% DMSO at the concentration of 10 mM. The Aurora A protein was purchased from Carna (05-101). 10 μL per well of 2.5×Aurora A protein was added to assay plate containing the test compound, centrifuged at 1000 rpm for 1 minute, and then incubated at 25° C. for 10 minutes. Peptide 21 was purchased from GL Biochem (116370) and ATP was purchased from Promega (V9102). The two were added 15 μL per well mixture of 1.67× peptide 21 (final conc. is 3 μM) and ATP (final conc. is 14.58 μM), centrifuged at 1000 rpm for 1 minute, then incubated at 25° C. for 40 minutes. Then added 30 μL of stop buffer (100 mM HEPES pH7.5, 0.015% Brij-35, 0.2% Coating Reagent 3, 50 mM EDTA) to the assay plate and centrifuged at 1000 rpm for 1 minute. the product was determined. Based on the results, the IC50 value of the compound was calculated.

The target in test [4] is T1, HPK1. Description: HPK1 degradation assay (western blot, human PBMC). Format: cell-based. The note with it: for DC50: read-out: HPK1 DC50; for Dmax: read-out: HPK1 Dmax. As to the method: Frozen human PBMC were purchased from Shanghai OribioTech and recovered with culture medium (RMPI1640) prior to use. The cells were then incubated with a variety of concentrations of compound. After incubation, the cells were collected and lysed. The protein concentration was determined by BCA protein assay kit from Thermo (23227). The HPK1 protein level was determined by western blots, using anti-human HPK1 polyclonal antibody from CST (4472S). Proteins were loaded into each well of the pre-casting gels and subjected to electrophoretic separation by SDS-PAGE. The protein resolved by SDS-PAGE were transferred to PVDF, blocked by 5% skim milk, and probed with anti-human HPK1 antibody or β-actin antibody from CST (3700S), using standard western blotting procedure.
Target sequence in this assay (Q92918 whole entry): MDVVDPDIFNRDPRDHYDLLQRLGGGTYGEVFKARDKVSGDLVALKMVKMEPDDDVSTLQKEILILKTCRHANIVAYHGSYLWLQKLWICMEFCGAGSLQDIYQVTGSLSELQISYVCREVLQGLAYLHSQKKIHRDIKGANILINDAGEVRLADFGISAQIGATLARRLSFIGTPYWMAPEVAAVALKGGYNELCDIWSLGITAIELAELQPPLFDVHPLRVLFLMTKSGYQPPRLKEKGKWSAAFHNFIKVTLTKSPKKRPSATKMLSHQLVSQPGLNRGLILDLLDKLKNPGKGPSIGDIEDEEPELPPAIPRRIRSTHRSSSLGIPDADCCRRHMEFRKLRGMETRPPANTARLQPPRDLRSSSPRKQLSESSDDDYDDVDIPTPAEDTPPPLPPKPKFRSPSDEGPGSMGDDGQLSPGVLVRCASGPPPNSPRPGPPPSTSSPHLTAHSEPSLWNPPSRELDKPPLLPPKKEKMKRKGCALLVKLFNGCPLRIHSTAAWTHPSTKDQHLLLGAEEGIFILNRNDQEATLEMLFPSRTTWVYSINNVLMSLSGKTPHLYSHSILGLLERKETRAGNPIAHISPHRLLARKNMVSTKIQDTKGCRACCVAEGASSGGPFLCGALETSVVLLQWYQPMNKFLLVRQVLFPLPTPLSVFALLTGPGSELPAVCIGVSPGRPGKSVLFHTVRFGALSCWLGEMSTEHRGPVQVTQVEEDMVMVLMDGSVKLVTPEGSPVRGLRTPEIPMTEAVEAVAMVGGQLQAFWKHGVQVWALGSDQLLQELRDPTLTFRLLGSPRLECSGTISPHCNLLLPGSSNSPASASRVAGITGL
(Immunoblotting shows a protein as a band on a membrane.)

The test system of a further test is FLT3. Description: FLT3 degradation assay (western blot, MV-411 cells). It is filed as cell-based, human. The method, then:
(§3) MV-411 cells were cultured with medium (IMDM) prior to use. Cells were then incubated with a variety of concentrations of compound. After incubation, the cells were collected and lysed. The protein concentration was determined by BCA protein assay kit from Thermo (23227). The FLT3 protein level was determined by western blots, using anti-human FLT3 monoclonal antibody from CST (3462S). Proteins were loaded into each well of the pre-casting gels and subjected to electrophoretic separation by SDS-PAGE. The protein resolved by SDS-PAGE were transferred to PVDF, blocked by 5% skim milk, and probed with anti-human FLT3 antibody or -actin antibody from CST (3700S), using standard western blotting procedure.

For test [5], the target named is T2, Aurora A. Description: Aurora A degradation assay (western blot). Format: cell-based. Particulars: for DC50: read-out: Aurora A DC50; for Dmax: read-out: Aurora A Dmax. The method, then:
Aurora A Degradation Assay
as §3, with “IMR32” for “MV-411”, “cultured with medium (MEM), Huh7 cells were cultured with medium (DMEM) and HL-60 cells were culture” for “cultured”, “AURKA” for “FLT3”, “(14475S).” for “(3462S).”, “β-actin” for “-actin”, “(3700S) or COX IV antibody from CST (4850S),” for “(3700S),”

The next test has as its system MEK 1/2. Description: MEK 1/2 degradation assay (western blot). It is filed as cell-based, human. As to the method: MEK 1/2 Degradation Assay
as §3, with “(IMDM) and IMR32 cells were cultured with medium (MEM)” for “(IMDM)”, “anti-human MEK 1/2 polyclonal” for “anti-human FLT3 monoclonal”, “CST (9122S).” for “CST (3462S).”, “anti-human MEK1/2” for “anti-human FLT3”, “or β-actin” for “or -actin”, “CST (3700S) and COX IV antibody from CST (4850S),” for “CST (3700S),”

Test [6] concerns the target FLT3-ITD (Homo sapiens, UniProt P36888, ITD). Kind of test: FLT3-ITD enzyme inhibition assay. It is filed as biochemical. As to the method: as §1, §2
Where [7] appears, read: protein degradation, human PBMC.
[8] abbreviates: protein degradation, class symbol, read-out: FLT3 DC50 (nM)/Dmax (%).
[9] abbreviates: protein degradation, IMR32, Huh7 or HL-60 cells.
The mark [10] stands for this setting: protein degradation, MV-411 or IMR32 cells.
Setting [11] is: protein degradation, MV-411 or IMR32 cells; read-out: MEK 1/2 DC50.
Where [12] appears, read: enzyme inhibition, read-out: FLT3-ITD IC50.

T2 sequence (O14965 whole entry): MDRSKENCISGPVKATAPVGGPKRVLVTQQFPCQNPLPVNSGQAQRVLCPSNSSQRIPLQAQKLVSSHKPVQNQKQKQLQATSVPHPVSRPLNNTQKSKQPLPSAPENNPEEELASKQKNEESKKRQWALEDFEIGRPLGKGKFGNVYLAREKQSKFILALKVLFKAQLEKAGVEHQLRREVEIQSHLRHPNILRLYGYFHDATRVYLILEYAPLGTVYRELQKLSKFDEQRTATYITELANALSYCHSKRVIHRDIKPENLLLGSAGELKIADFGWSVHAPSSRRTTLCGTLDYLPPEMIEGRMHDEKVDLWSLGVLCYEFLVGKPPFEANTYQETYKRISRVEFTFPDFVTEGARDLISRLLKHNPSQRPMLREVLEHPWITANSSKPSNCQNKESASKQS
FLT3-ITD (Homo sapiens, UniProt P36888, ITD), sequence (P36888 whole entry, looked up, change not shown): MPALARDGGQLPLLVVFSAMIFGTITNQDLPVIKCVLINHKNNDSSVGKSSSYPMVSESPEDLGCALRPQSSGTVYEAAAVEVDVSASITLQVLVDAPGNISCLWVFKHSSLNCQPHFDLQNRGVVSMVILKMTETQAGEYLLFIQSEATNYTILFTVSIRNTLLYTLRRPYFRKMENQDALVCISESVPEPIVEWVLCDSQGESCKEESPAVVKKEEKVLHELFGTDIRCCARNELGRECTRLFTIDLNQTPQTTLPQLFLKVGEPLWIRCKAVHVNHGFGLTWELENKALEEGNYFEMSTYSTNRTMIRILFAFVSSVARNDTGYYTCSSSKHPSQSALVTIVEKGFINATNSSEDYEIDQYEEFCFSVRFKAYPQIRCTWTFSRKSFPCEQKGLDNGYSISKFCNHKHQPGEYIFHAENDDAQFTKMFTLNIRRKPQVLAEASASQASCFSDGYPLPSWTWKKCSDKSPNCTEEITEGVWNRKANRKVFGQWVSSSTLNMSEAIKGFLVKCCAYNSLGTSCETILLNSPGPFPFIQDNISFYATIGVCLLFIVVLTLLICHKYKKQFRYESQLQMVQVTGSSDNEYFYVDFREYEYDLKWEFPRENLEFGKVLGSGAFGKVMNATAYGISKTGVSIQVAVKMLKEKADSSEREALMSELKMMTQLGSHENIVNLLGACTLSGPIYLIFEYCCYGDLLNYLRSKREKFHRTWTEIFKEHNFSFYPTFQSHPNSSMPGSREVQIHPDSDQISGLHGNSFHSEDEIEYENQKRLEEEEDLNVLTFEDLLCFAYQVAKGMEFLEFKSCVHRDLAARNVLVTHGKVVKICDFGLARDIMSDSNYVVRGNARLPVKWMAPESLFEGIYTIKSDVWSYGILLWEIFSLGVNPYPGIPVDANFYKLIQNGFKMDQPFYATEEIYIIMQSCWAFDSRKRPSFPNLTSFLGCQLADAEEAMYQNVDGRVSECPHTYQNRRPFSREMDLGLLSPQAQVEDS
FLT3-ITD (Homo sapiens, UniProt P36888), sequence (P36888 whole entry, looked up, change not shown): as above

`CCc1c[nH]c2ncc(-c3cccc(N4CCCN(CCN5CCN(c6cc7c(cc6F)C(=O)N(C6CCC(=O)NC6=O)C7)CC5)C4=O)c3)c(Cl)c12` (stereo not drawn) [Example 7, 3-(5-(4-(2-(3-(3-(4-chloro-3-ethyl-1H-pyrrolo [2,3-b]pyridin-5-yl)phenyl)-2-oxotetrahydropyrimidin-1 (2H)-yl)ethyl)piperazin-1-yl)-6-fluoro-1-oxoisoindolin-2-yl) piperidine-2,6-dione]: the results for the half-inhibitory concentration (IC50) against HPK1 [1], against FLT3-ITD [2] and against Aurora A [3] were 10.5 nM, 12.3 nM and 10.6 nM, respectively. Also, the “HPK1 Dmax” value at HPK1 [4] (setting [7]) was 60%. The DC50 at HPK1 [4] (setting [7]) is 12 nM; in the test on FLT3 (setting [8]) it was over 10000 nM; at Aurora A [5] (setting [9]), 5 nM; in the test on MEK 1/2 (setting [11]), 264 nM. Besides, at Aurora A [5] (setting [9]), the “Aurora A Dmax” value amounted to 50%. Also, the “MEK 1/2 Dmax” value with MEK 1/2 (setting [10]) is 37%.

As to `CCc1c[nH]c2ncc(-c3cccc(N4CCCN(CCC5CCN(c6ccc(NC7CCC(=O)NC7=O)cc6F)CC5)C4=O)c3)c(Cl)c12` (stereo not drawn) [Example 16, 3-((4-(4-(2-(3-(3-(4-chloro-3-ethyl-1H-pyrrolo [2,3-b]pyridin-5-yl)phenyl)-2-oxotetrahydropyrimidin-1 (2H)-yl)ethyl)piperidin-1-yl)-3-fluorophenyl)amino) piperidine-2,6-dione], the IC50 was 5.5 nM against HPK1 [1], 12.3 nM against FLT3-ITD [6] and 40.8 nM against Aurora A [3]. The DC50 at HPK1 [4] (setting [7]) stood at 100 nM; with FLT3 (read-out: FLT3 DC50, protein degradation), 115 nM; at Aurora A [5] (setting [9]), 4.6 nM; with MEK 1/2 (read-out: MEK 1/2 DC50; protein degradation, MV-411 or IMR32 cells), 4.6 nM. The Dmax at HPK1 [4] is 64%; at Aurora A [5] it was 75%. Further, the “FLT3 Dmax” value with FLT3 (protein degradation) was determined as 17%. The “MEK 1/2 Dmax” value in the test with MEK 1/2 (setting [10]) amounted to 75%.

Turning to `CCc1c[nH]c2ncc(-c3cccc(N4CCCN(CCN5CCN(c6ccc(C7CCC(=O)NC7=O)cc6)CC5)C4=O)c3)c(Cl)c12` (stereo not drawn) [Example 17], the IC50 amounted to 2.9 nM against HPK1 [1], 17.4 nM on FLT3-ITD [6] (setting [12]) and 16.6 nM at Aurora A [3]. For the same compound, the DC50 was determined as 2.3 nM on HPK1 [4] (setting [7]); 8.7 nM in the test with FLT3 (protein degradation, read-out: FLT3 DC50); 1 nM on Aurora A [5] (setting [9]); 1 nM with MEK 1/2 (setting [11]). Moreover, the Dmax on HPK1 [4] (setting [7]) was determined as 91%; on Aurora A [5] (setting [9]) it was 50%. In the test with FLT3 (protein degradation), the “FLT3 Dmax” value is reported as 80%. Moreover, the “MEK 1/2 Dmax” value in the test on MEK 1/2 (setting [10]) stood at 47%.

Consider `CCc1c[nH]c2ncc(-c3cccc(N4CCCN(CCN5CCN(c6ccc(NC7CCC(=O)NC7=O)cc6F)CC5)C4=O)c3)c(Cl)c12` (stereo not drawn) [Example 18], for which the IC50 against HPK1 [1] is 2.5 nM; on FLT3-ITD [6] (setting [12]), 5.4 nM; against Aurora A [3], 10.6 nM. Also, the DC50 is 1 nM on HPK1 [4] (setting [7]), over 10000 nM with FLT3 (setting [8]), 1.1 nM at Aurora A [5] (setting [9]) and 1 nM in the test with MEK 1/2 (setting [11]). The Dmax at HPK1 [4] (setting [7]) came to 52%; on Aurora A [5] (setting [9]), 74%. In addition, the “MEK 1/2 Dmax” value in the test with MEK 1/2 (setting [10]) turned out to be 74%.
